One assay deals with PI-3K. Nature of the assay: PI-3K activity assay. In kind it is cell-based, human. The following applies: pretreatment, HUVECs. From the text: The catalytic domain of PI-3K was immunoprecipitated from the stimulated and unstimulated endothelial in presence and absence of various compound treatment using an anti-p85α (N-18) antibody. The immunoprecipated proteins were subjected to kinase activity assay using a PI substrate, diC8 followed by detection of the PI(3)P as per the instructions of the Class III PI-3kinase kit (Echelon, USA).

Assay [1] has as its system NF-κB DNA-binding activity in HUVECs. Kind of assay: NF-κB activation assay (EMSA) in nuclear extracts. The settings on record: wortmannin 100 µM or H-89 20 µM, 30 mins, then TNF-α 10 ng/ml. In kind it is cell-based, human. As to the method: The endothelial cells were subjected to the indicated treatments followed by induction with TNF-α for indicated time points or 30 mins. The cells were then washed with PBS and dislodged using a cell scraper. The cytoplasmic and nuclear extracts were prepared as described previously, [46].
NF-κB activation in the nuclear extracts of human endothelial cells was assessed by electrophoretic mobility shift assay (EMSA) as described previously, [46]. For supershift experiment, nuclear extracts prepared from unstimulated and TNF-α-stimulated cells were incubated with antibodies against the p50 or p65 subunit of NF-κB or -α-tubulin for 15 mins at 37°C before the complex was analyzed by EMSA. Addition of equal amount of radioactive-labelled probe to all the samples was indicated by the similar intensity of the unincorporated probe observed towards the end of the gel.
On the technique in general: Mobility shift assays separate free from complexed probe on a gel.

Assay [2] deals with Akt phosphorylation in HUVECs. Kind of assay: Akt phosphorylation western blot. In kind it is cell-based, human. The following applies: wortmannin 100 µM or H-89 20 µM, 30 mins, then TNF-α 10 ng/ml 30 mins. As to the method: Nuclear and cytoplasmic extracts were fractionated on SDS-PAGE with equal amount of proteins per well and transferred onto PVDF membranes and those membranes were incubated with appropriate primary antibodies and treated with HRP conjugated secondary antibodies followed by detection with DAB-H2O2 system. β-tubulin, α-actin and Lamin B1 were used as loading controls. Antibodies against NF-κBp65, phosphoNF-κBp65, IκBα, phosphoIκBα, IKK-β, Akt, phosphoAkt (Ser473) and phosphoAkt (Thr308) were used.
(In general: A western blot detects proteins with antibodies after separation by electrophoresis.)

Assay [3] concerns TNF-α-induced E-selectin expression on human endothelial cells. Also on record: method as in PMID 21315792. The following applies: dose-dependent; cited from earlier work.
In assay [4] the test system is adhesion of neutrophils to the endothelium monolayer. Also on record: method as in PMID 21315792. The following applies: dose-dependent; cited from earlier work.
The test system of assay [5] is TNF-α-induced ICAM-1 expression on human endothelial cells. Details: method as in PMID 21315792. The settings on record: dose-dependent; cited from earlier work.
Assay [6] has as its system TNF-α-induced VCAM-1 expression on human endothelial cells. Details: method as in PMID 21315792. The settings on record: dose-dependent; cited from earlier work.
A further assay addresses T1, PKA (Homo sapiens, UniProt P17612).
T1 construct: PKA was immunoprecipitated from the total cell lysates of unstimulated and TNF-α-stimulated endothelial cells; endogenous in cells; host or cells: HUVEC (treated with MPTAG, SQ 22536, H-89 ± TNF-α), anti-PKAα immunoprecipitate
Nature of the assay: PKA activity assay. In kind it is cell-based. From the text:
PKA was immunoprecipitated from the total cell lysates of unstimulated and TNF-α-stimulated endothelial cells in presence and absence of treatment with agents indicated in Figure 7 using anti-PKAα (W-18) antibody. The immunoprecipates were subjected to kinase activity assay using a Bisamide Rhodamine 110 peptide substrate as per the instructions of the Profluor PKA assay kit (Promega, USA).

With `COC[C@H]1OC(=O)c2coc3c2[C@@]1(C)C1=C(C3=O)[C@@H]2CCC(=O)[C@@]2(C)C[C@H]1OC(C)=O` [wortmannin, Wortmannin, reference compound], in the assay with PI-3K, the “TNF-α-induced PI-3K activity” value was “abolished”. Moreover, in assay [1], the “TNF-α-induced NF-κB activation (EMSA), kinase inhibitor alone” value is on record as “inhibited”. Further, the “TNF-α-induced Akt phosphorylation (Thr308), kinase inhibitor alone” value in assay [2] is on record as “inhibited”.

Consider `Cc1occc(=O)c1O[C@@H]1O[C@H](CO)[C@@H](O)[C@H](O)[C@H]1O` [MPG, 2-methyl-pyran-4-one-3-O-β-D-glucopyranoside], for which the “inhibition of TNF-α-induced E-selectin expression” value in assay [3] is on record as “inhibited”. Also, the “inhibition of adhesion of neutrophils to the endothelium monolayer” value in assay [4] is given as “inhibited”. Also, the “inhibition of TNF-α-induced ICAM-1 expression” value in assay [5] is “inhibited”. In assay [6], the “inhibition of TNF-α-induced VCAM-1 expression” value was “inhibited”.

With `Nc1ncnc2c1ncn2C1CCCO1` (centres unmarked) [SQ 22536, reference compound], the “PKA activity in unstimulated HUVECs” value at PKA (SQ 22536 treatment alone) is recorded as “moderately suppressed”.

Turning to `O=S(=O)(NCCNC/C=C/c1ccc(Br)cc1)c1cccc2cnccc12` [H-89, reference compound], the PKA activity entry on PKA (H-89 treatment, even in presence of MPTAG) was “inhibited”. Besides, the “TNF-α-induced NF-κB activation (EMSA), kinase inhibitor alone” value in assay [1] is listed as “enhanced”. The “TNF-α-induced Akt phosphorylation (Thr308), kinase inhibitor alone” value in assay [2] is on record as “enhanced”.

The values are drawn from paper PMC3465347, “Regulation of NF-κB Activation through a Novel PI-3K-Independent and PKA/Akt-Dependent Pathway in Human Umbilical Vein Endothelial Cells” (PLoS ONE, 2012).
